In patent publication US9879303B2, “Chromogenic glucuronidase substrates and uses” (Glycosynth Limited, priority 2013, dated 2018):
Counter-ions that a name gives are not always drawn.

System: E. coli clinical isolates
Assay: screen of strains on agar plates (CPS ID 3 or Columbia agar)
Assay type: cell-based
Set-up: key to colour: Red, Green, Black or Purple mean strong colour; Red, Green, Black or Purple mean strong colour; Red, Green, Black or Purple mean strong colour; Red, Green, Black or Purple mean strong colour; +/− means less colour than strong; Tr means a trace of colour, less than +/−; — means no colour
Conditions: for colour: 37° C. 18 hours
Text: In order to obtain a fuller picture of the sensitivity of the substrates, they were screened with 100 different clinical isolates of E. coli in a liquid medium containing FAC. The isolates were chosen at random from the Microbiology Department, Freeman Hospital, Newcastle Upon Tyne, UK. The effectiveness of the new substrates was compared with three other media which all contained indoxyl-β-D-glucuronides. One was a commercial medium, CPS ID 3 (bioMérieux SA, Lyon, France). […] This medium was employed as a control. Among the β-D-glucuronidase producing strains of E. coli there is a large variation in the quantity of the enzyme produced and it is almost certain that the CPS ID 3 medium has been rigorously optimised to allow good growth of all the target organisms and maximum expression of the target enzymes. Therefore, two indoxyl glucuronides, X-β-D-glucuronide CHA salt and Rose-β-D-glucuronide CHA salt were also tested in a simple agar medium to allow a direct comparison of the sensitivity of these Indoxyl glucuronides when used in a medium that has not been optimised for the growth of the target organism. The comparison of the results for Rose-β-D-glucuronide and the CPS ID 3 medium was of particular significance as the commercial medium also uses Rose-β-D-glucuronide for the detection of E. coli. For consistency, the four glucuronides were all chosen as their CHA salts. As already stated, it is not anticipated that the salt form is critical to their performance. Currently. X-β-D-glucuronide is often used as either the CHA salt or the sodium salt. Brenner and colleagues [K. P. Brenner et al, Appl. Environ. Microbiol., 59, 3534-3544, (1993)] found no difference in the performance of the CHA and sodium salt forms with their application using indoxyl-β-D-glucuronide, neither in respect of colour development nor in the recovery of E. coli.
The two indoxyl glucuronides used produce insoluble endpoints following hydrolysis, as does the CPS ID 3 medium. It was therefore necessary to test these two substrates on agar plates. In contrast, catechol-β-D-glucuronide (1) and DHN-β-D-glucuronide (2b) give much more soluble endpoints best suited to liquid media and were therefore tested in a broth medium. Each broth was prepared using proteose peptone (Oxoid, Basingstoke, UK) (2 g), NaCl (1 g) and FAC (100 mg) in DI water (180 mL). This mixture was autoclaved and cooled to room temperature before being dispensed into bijoux (100×1.8 mL). Catechol β-D-glucuronide CHA salt (1) or DHN-β-D-glucuronide CHA salt (2b) (60 mg) were each dissolved in water (20 mL) and filtered to sterilize before being aseptically dispensed into successive bijoux (0.2 mL) containing the broth solution. The broth/substrate solutions were then inoculated with bacterial suspensions made up to 0.5 McFarland standard (2 μL per bijoux). X-β-D-glucuronide CHA salt (Glycosynth Ltd, Warrington, UK) (10 mg) was dissolved in NMP (200 μL). Rose-β-D-glucuronide CHA salt (Glycosynth Ltd, Warrington, UK) (20 mg) was dissolved in NMP (200 μL). These solutions were then added to Columbia agar (Oxoid, Basingstoke, UK) (100 mL) and inoculated with bacterial suspensions made up to 0.5 McFarland standard (1 μL). The plates and broths were incubated at 37° C. for 18 hours in air.

[1] = 100 E. coli strains after 18 h incubation

O=C(O)[C@H]1O[C@@H](Oc2c[nH]c3ccc(Br)c(Cl)c23)[C@H](O)[C@@H](O)[C@@H]1O [X-β-D-glucuronide CHA salt, 5-bromo-4-chloro-3-indolyl β-D-glucuronide]
% Sensitivity [1]: 79%
Negative strains [1]: 21
Positive strains [1]: 79
colour (E. coli 260262P): Green
colour (E. coli 260280Z): Green
colour (E. coli 260310H): Green
colour (E. coli 260313A): —
colour (E. coli 260316T): —
colour (E. coli 260327V): Green
colour (E. coli 260330Y): Green
colour (E. coli 260333P): —
colour (E. coli 260345F): Green
colour (E. coli 260348K): Green
colour (E. coli 260354W): Green
colour (E. coli 260364H): —
colour (E. coli 260370C): Green
colour (E. coli 260375E): Green
colour (E. coli 260390B): —
colour (E. coli 260396Z): Green
colour (E. coli 260398Q): Green
colour (E. coli 260400N): —
colour (E. coli 260401Q): Green
colour (E. coli 260402H): Green
colour (E. coli 260404W): Green
colour (E. coli 260405P): Green
colour (E. coli 260406A): —
colour (E. coli 260406Y): Green
colour (E. coli 260407F): Green
colour (E. coli 260408C): Green
colour (E. coli 260411Z): Green
colour (E. coli 260412Q): Green
colour (E. coli 260414H): Green
colour (E. coli 260415Y): Green
colour (E. coli 260416W): —
colour (E. coli 260417P): Green
colour (E. coli 260422Y): Green
colour (E. coli 260424P): Green
colour (E. coli 260425A): Green
colour (E. coli 260426F): Green
colour (E. coli 260428T): Green
colour (E. coli 260431N): Green
colour (E. coli 260432E): Green
colour (E. coli 260433H): Green
colour (E. coli 260434Y): Green
colour (E. coli 260435W): Green
colour (E. coli 260436P): Green
colour (E. coli 260437A): —
colour (E. coli 260438F): Green
colour (E. coli 260439C): Green
colour (E. coli 260440S): Green
colour (E. coli 260441G): Green
colour (E. coli 260458Y): Green
colour (E. coli 260459W): Green
colour (E. coli 260463D): Green
colour (E. coli 260464G): Green
colour (E. coli 260471B): —
colour (E. coli 260478N): —
colour (E. coli 260479Q): Green
colour (E. coli 260480M): Green
colour (E. coli 260481J): Green
colour (E. coli 260483R): —
colour (E. coli 260485D): Green
colour (E. coli 260486L): Green
colour (E. coli 260492J): Green
colour (E. coli 260494B): Green
colour (E. coli 260495R): —
colour (E. coli 260497D): Green
colour (E. coli 260502G): Green
colour (E. coli 260503Z): Green
colour (E. coli 260504N): Green
colour (E. coli 260505Q): —
colour (E. coli 260506E): Green
colour (E. coli 260508Y): Green
colour (E. coli 260509W): Green
colour (E. coli 260510R): Green
colour (E. coli 260511X): Green
colour (E. coli 260514G): —
colour (E. coli 260515Z): —
colour (E. coli 260521S): Green
colour (E. coli 260522Z): Green
colour (E. coli 260532S): Green
colour (E. coli 260533G): Green
colour (E. coli 260536Q): Green
colour (E. coli 260537E): —
colour (E. coli 260538H): —
colour (E. coli 260539Y): Green
colour (E. coli 260541R): Green
colour (E. coli 260545G): Green
colour (E. coli 260547N): Green
colour (E. coli 260548Q): Green
colour (E. coli 260549E): Green
colour (E. coli 260553X): —
colour (E. coli 260554D): Green
colour (E. coli 260555L): Green
colour (E. coli 260563B): Green
colour (E. coli 260564R): Green
colour (E. coli 260578D): —
colour (E. coli 2603121P): —
colour (E. coli 2604399E): Green
colour (E. coli O157 non-toxigenic): —
colour of positive colonies (in words): green colonies
